Source: ChEMBL document CHEMBL1212897 (J Med Chem, 2010)
Calls of active or inactive are those of the source. The rule behind the calls is not given here.

What was measured:
Estrogen receptor = molecular target: T1, Estrogen receptor (Homo sapiens, UniProt P03372); experiment: Antagonist activity at estrogen receptor; type: functional
T1 sequence (P03372 whole entry): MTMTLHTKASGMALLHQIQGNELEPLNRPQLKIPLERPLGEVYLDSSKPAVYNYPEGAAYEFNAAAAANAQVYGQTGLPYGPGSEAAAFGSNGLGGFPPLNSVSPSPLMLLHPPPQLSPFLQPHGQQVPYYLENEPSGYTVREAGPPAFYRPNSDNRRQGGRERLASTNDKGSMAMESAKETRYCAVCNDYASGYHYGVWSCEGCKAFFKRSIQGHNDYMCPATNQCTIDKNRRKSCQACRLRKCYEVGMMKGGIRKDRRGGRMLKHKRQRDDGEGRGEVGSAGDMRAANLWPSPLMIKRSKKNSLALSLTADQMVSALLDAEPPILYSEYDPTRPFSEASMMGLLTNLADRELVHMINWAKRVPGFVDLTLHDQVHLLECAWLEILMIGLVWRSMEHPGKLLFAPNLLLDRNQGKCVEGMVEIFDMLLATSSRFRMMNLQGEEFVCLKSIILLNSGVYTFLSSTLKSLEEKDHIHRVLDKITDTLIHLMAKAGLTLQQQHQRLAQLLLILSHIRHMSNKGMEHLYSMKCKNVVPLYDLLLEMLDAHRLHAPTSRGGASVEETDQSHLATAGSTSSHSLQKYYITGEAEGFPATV

Glucocorticoid receptor = molecular target: T2, Glucocorticoid receptor (Homo sapiens, UniProt P04150)
T2 sequence (P04150 whole entry): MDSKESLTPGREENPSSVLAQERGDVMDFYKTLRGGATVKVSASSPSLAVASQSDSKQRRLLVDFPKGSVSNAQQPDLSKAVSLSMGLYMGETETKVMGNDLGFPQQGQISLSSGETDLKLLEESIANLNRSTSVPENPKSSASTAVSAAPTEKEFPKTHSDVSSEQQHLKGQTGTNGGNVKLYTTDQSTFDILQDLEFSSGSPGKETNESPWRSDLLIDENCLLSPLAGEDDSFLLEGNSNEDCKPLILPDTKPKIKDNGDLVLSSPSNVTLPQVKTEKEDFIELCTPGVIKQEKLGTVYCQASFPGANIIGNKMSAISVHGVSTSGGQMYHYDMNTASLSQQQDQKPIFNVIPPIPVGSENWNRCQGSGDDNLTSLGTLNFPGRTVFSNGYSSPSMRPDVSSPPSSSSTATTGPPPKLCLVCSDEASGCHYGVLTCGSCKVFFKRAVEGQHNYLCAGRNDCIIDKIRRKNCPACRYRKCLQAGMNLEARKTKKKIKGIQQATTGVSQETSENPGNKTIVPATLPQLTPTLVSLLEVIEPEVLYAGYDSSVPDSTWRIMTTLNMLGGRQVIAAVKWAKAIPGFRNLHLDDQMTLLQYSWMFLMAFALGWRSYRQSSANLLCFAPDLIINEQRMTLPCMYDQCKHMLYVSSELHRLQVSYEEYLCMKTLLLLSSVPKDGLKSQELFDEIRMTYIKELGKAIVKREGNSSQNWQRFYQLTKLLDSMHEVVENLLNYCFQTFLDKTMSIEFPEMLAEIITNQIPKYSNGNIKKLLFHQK

[1] = molecular target: T3, Mineralocorticoid receptor (Homo sapiens, UniProt P08235); type: functional, cell-based, Huh-7;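 also: antagonism at Gal4-fused mineralocorticoid receptor in human Huh7 cells, measured by luciferase reporter gene read-out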
T3 sequence (P08235 whole entry): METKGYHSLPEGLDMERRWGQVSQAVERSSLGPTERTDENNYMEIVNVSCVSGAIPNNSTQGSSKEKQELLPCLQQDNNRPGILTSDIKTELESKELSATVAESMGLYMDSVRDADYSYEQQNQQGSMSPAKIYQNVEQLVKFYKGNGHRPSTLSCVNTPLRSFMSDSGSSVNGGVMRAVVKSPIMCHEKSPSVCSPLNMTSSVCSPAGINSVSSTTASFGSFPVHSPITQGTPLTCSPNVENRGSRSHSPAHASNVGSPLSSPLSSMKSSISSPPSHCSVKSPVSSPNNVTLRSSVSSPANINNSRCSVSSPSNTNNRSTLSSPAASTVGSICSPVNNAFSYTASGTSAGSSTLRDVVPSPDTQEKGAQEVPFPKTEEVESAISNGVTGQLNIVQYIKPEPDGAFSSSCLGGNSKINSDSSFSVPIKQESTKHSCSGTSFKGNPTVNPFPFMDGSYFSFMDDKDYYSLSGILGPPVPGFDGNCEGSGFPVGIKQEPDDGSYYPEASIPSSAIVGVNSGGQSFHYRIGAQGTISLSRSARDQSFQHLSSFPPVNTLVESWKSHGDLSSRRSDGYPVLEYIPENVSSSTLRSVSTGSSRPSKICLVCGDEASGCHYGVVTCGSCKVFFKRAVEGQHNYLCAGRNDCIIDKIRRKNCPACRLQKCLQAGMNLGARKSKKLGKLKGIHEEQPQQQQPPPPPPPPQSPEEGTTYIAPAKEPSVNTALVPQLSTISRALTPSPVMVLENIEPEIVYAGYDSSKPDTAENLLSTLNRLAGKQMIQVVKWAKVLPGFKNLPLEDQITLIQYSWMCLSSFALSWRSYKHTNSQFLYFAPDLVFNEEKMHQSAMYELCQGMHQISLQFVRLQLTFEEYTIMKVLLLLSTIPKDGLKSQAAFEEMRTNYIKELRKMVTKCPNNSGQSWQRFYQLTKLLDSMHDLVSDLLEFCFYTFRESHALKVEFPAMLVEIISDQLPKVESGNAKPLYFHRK

Progesterone receptor = molecular target: T4, Progesterone receptor (Homo sapiens, UniProt P06401); experiment: Antagonist activity at progesterone receptor; type: functional
T4 sequence (P06401 whole entry): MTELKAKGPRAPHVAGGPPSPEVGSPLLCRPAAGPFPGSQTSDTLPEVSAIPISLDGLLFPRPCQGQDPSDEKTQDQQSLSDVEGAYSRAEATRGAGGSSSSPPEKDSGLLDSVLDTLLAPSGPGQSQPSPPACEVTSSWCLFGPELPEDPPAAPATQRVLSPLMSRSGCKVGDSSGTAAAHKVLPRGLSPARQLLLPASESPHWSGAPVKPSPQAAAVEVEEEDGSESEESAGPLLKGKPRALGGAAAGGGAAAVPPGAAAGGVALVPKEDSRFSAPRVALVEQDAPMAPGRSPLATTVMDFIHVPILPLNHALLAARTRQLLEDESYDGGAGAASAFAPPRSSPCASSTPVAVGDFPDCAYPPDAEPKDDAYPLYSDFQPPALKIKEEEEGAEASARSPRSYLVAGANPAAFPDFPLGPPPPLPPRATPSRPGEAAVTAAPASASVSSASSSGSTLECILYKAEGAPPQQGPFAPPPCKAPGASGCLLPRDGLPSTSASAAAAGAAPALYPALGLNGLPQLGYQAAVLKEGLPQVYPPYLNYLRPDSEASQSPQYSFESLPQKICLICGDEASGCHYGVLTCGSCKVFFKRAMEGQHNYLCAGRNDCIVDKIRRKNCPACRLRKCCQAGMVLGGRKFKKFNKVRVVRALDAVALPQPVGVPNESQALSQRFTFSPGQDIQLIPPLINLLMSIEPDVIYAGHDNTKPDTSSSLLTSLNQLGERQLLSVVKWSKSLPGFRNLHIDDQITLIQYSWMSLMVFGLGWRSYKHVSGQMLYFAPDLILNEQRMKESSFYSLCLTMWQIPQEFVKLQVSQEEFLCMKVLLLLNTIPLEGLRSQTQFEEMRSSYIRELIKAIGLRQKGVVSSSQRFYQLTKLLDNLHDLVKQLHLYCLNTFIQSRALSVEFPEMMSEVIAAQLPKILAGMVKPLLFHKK

Androgen receptor = molecular target: T5, Androgen receptor (Homo sapiens, UniProt P10275)
T5 sequence (P10275 whole entry): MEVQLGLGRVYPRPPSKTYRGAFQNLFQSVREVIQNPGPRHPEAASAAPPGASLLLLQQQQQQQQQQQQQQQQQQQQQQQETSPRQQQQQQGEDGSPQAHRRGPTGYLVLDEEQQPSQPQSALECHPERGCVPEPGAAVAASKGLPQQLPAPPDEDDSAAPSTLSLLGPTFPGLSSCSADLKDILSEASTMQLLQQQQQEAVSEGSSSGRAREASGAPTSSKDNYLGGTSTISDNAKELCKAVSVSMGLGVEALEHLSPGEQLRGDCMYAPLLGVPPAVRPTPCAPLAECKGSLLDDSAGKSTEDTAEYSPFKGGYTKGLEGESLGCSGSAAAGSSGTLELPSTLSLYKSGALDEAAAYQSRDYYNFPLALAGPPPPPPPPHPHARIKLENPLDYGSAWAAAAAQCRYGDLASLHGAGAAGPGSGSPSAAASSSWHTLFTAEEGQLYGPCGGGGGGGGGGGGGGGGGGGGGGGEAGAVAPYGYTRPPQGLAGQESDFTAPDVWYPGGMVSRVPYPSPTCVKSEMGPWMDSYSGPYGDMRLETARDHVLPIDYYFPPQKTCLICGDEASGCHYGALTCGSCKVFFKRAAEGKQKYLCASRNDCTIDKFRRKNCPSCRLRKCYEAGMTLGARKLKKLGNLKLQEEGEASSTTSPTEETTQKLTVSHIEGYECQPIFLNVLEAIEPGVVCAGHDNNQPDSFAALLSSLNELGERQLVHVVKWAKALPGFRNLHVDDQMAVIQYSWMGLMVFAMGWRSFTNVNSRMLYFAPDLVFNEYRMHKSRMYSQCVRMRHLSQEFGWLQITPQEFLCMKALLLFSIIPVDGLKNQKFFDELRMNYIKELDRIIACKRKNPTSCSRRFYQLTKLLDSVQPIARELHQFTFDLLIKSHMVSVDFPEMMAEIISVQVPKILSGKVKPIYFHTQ

[2] = Clearance in Sprague-Dawley rat at 2 mg/kg, iv; type: ADME, organism-based; set-up: dose 2 mg/kg, route intravenous; details: in vivo
[3] = Volume of distribution at steady state in Sprague-Dawley rat at 2 mg/kg, iv; type: ADME, organism-based; set-up: dose 2 mg/kg, route intravenous; details: in vivo, read-out: Vdss
[4] = Half life in Sprague-Dawley rat at 2 mg/kg, iv; type: ADME, organism-based; set-up: dose 2 mg/kg, route intravenous; details: in vivo
[5] = Oral bioavailability in Sprague-Dawley rat at 2 mg/kg; type: ADME, organism-based; details: in vivo
[6] = Clearance in Sprague-Dawley rat at 1 mg/kg, iv; type: ADME, organism-based; set-up: dose 1 mg/kg, route intravenous; details: in vivo
[7] = Volume of distribution at steady state in Sprague-Dawley rat at 1 mg/kg, iv; type: ADME, organism-based; set-up: dose 1 mg/kg, route intravenous; details: in vivo, read-out: Vdss
[8] = Half life in Sprague-Dawley rat at 1 mg/kg, iv; type: ADME, organism-based; set-up: dose 1 mg/kg, route intravenous; details: in vivo
[9] = Oral bioavailability in Sprague-Dawley rat at 1 mg/kg; type: ADME, organism-based; details: in vivo
Rattus norvegicus [10] = experiment: Antihypertensive activity in Dahl salt sensitive hypertensive rat assessed as reduction in systolic blood pressure at 40 to 100 mg/kg, po bid for 21 days (RVb = 10 to 50 mmHg); type: functional, Artery; details: dose mg/kg 40-100
Rattus norvegicus [11] = experiment: Protection against high salt-induced kidney injury in Dahl salt sensitive hypertensive rat assessed as decrease in urinary albumin level at 10 mg/kg, po relative to eplerenone; type: functional; set-up: scale not given: the % may be the effect or the level left
Rattus norvegicus [12] = experiment: Protection against high salt-induced kidney injury in Dahl salt sensitive hypertensive rat assessed as decrease in urinary albumin level at 40 to 100 mg/kg, po relative to eplerenone; type: functional; set-up: scale not given: the % may be the effect or the level left; details: dose mg/kg 40-100
Rattus norvegicus [13] = experiment: Protection against high salt-induced kidney injury in Dahl salt sensitive hypertensive rat assessed as decrease in glomerulosclerosis at 10 mg/kg, po relative to eplerenone; type: functional, organism-based; set-up: dose 10 mg/kg
Rattus norvegicus [14] = experiment: Effect on renal function in rat assessed as reduction in serum potassium level at 10 mg/kg, po; type: functional, organism-based; set-up: dose 10 mg/kg

Compound | IC50 (Estrogen receptor) [µM] | IC50 (Glucocorticoid receptor) [µM] | IC50 [1] [µM] | IC50 (Progesterone receptor) [µM] | IC50 (Androgen receptor) [µM] | clearance [2] [mL/min/kg] | Vd [3] [L/kg] | half-life [4] [h] | bioavailability [5] [%] | clearance [6] [mL/min/kg] | Vd [7] [L/kg] | half-life [8] [h] | bioavailability [9] [%] | Activity (Rattus norvegicus [10]) [mmHg] | Activity (Rattus norvegicus [11]) [%] | Activity (Rattus norvegicus [12]) [%] | Activity (Rattus norvegicus [13]) | Activity (Rattus norvegicus [14])
CC(=O)S[C@@H]1CC2=CC(=O)CC[C@]2(C)[C@H]2CC[C@@]3(C)[C@@H](CC[C@@]34CCC(=O)O4)[C@H]12 [SPIRONOLACTONE] | 5.7 | 6.92 | – | – | – | – | – | – | – | – | – | – | – | – | – | – | – | –
N#Cc1ccc(N2N=C3c4ccc(C(=O)O)cc4CC[C@@H]3[C@@H]2C2CCCC2)cc1 (racemic) | – | > 10 | 0.089 | 3.18 | > 10 | – | – | – | – | – | – | – | – | – | – | – | – | –
N#Cc1ccc(N2N=C(c3ccc(C(=O)O)cc3)C[C@@H]2c2ccc(F)cc2)cc1Cl | – | > 10 | 0.031 | 2.08 | > 8.92 | 6.9 | 1.5 | 2.6 | 46 | – | – | – | – | – | – | – | – | –
Cc1cc(N2N=C3c4ccc(C(=O)O)cc4CO[C@@H]3[C@@H]2C2CCCC2)ccc1C#N | – | > 10 | 0.026 | 1.88 | > 10 | 4.6 | 0.6 | 1.6 | 57 | – | – | – | – | – | – | – | – | –
CCOc1cc(C2=NN(c3ccc(C#N)c(Cl)c3)[C@@H](C3CCCC3)C2)ccc1C(=O)O | > 4.96 | – | – | – | – | 5.5 | 0.6 | 1.3 | 83 | 9.2 | 2.3 | 2.5 | 50 | – | – | – | – | –
N#Cc1ccc(N2N=C3c4ccc(C(=O)O)cc4CC[C@@H]3[C@@H]2C2CCCC2)cc1Cl [PF-03882845] | – | – | – | – | – | 9.8 | 1.4 | 1.7 | 86 | – | – | – | – | <5 | 18 | 50 | Active | Active
N#Cc1ccc(N2N=C(c3ccc(C(=O)O)cc3)C[C@@H]2C2CCCC2)cc1Cl | – | > 10 | 0.016 | > 4.31 | > 10 | 34 | 3.6 | 1.2 | 100 | – | – | – | – | – | – | – | – | –
